Measurements: patent publication US3974135A, “Synthetic decapeptide having the activity of the luteinizing hormone releasing hormone and method for producing the same” (priority 1972, dated 1976)
Values joined by “and” are separate entries in the source; they are usually repeats but may differ in a detail not shown here. Equal entries are not always repeated.

Test system: LH
Assay: LRH assay in vivo in rats: serum LH by radioimmunoassay before and after injection of the peptide
Conditions: for increase of the LH level: in vivo assay in rats; for mμg LH/ml serum before: before injection
Description: The LRH assay was performed by the procedure of Ramirez and McCann (Endocrinology 73, 193 (1963) ). Serum assays for LH were performed in duplicate by the double antibody radioimmuno assay of Niswender et al. (Proc. Soc. Exp. Biol. Med. 128, 807 (1968)) using antiovine LH serum and ovine LH-^131 I. The activity was determined by comparison of LH levels before and after injection of the peptide.

Compound | doses at which it releases LRH (active dose) [ng] | increase of the LH level (dose of 25 ng) [times] | increase of the LH level (dose of 50 ng) | potency compared among the three decapeptides I, II, III (rat, in vivo) | mμg LH/ml serum before (dose level 25 μg) | mμg LH/ml serum after (dose level 200 μg, after injection) [mμg LH/ml serum] | mμg LH/ml serum before (dose level 200 μg)
CC(C)C[C@H](NC(=O)CNC(=O)[C@H](Cc1ccc(O)cc1)NC(=O)[C@H](CO)NC(=O)[C@H](Cc1c[nH]c2ccccc12)NC(=O)[C@H](Cc1c[nH]cn1)NC(=O)[C@@H]1CCC(=O)N1)C(=O)N[C@@H](CCCNC(=N)N)C(=O)N1CCC[C@H]1C(=O)NCC(N)=O [I, pGlu-His-Trp-Ser-Tyr-Gly-Leu-Arg-Pro-Gly-NH2] | 1 to 25 | 30 | maximum increase | most potent | – | – | –
CC(C)C[C@H](NC(=O)CNC(=O)[C@H](Cc1ccc(O)cc1)NC(=O)[C@H](CO)NC(=O)[C@H](Cc1c[nH]c2ccccc12)NC(=O)[C@H](Cc1c[nH]cn1)NC(=O)[C@@H]1CCC(=O)N1)C(=O)N[C@@H](CCCNC(=N)N)C(=O)N1CCC[C@H]1C(=O)NCC(=O)O [II, pGlu-His-Trp-Ser-Tyr-Gly-Leu-Arg-Pro-Gly-OH] | – | – | – | – | 4.4 mμg LH/ml serum and 5.8 mμg LH/ml serum | > 285.0 | < 4.0 mμg LH/ml serum and 4.0 mμg LH/ml serum
